Measured values as given in article PMC7796559, “Connecting the conformational behavior of cyclic octadepsipeptides with their ionophoric property and membrane permeability” (Organic & biomolecular chemistry, 2020).
Where two headings read alike, the source gives them in different places. Blank lines part the entries; values can stand above or below the compound they belong to. Non-standard residues stand in square brackets, D forms with d. Residues, ends and D or L forms follow the SMILES beside them. dPhLac = O=C(O)[C@H](O)Cc1ccccc1; NMeL = CN[C@@H](CC(C)C)C(=O)O; dLac = C[C@@H](O)C(=O)O

Assays:
nematodes = details: cited from earlier work
[1] = Site-to-site exchange rates from EXSY peaks in EASY-ROESY; format: physicochemical; details: for kex / k1 / k2: EASY-ROESY, mixing time 100 ms, CDCl3; for k1 / k2: site-to-site exchange rate
Method: Following ref. [76] and [77], site-to-site rates were determined in a straightforward way by taking the logarithm of matrix A = M × M0^−1 containing the volumes of cross- and diagonal peaks of the exchanging sites (Hα of Mle^2, Mle^6 and Mle^26) divided by their magnetic fraction M0 (i.e. the relative intensities of the corresponding resonances in the ^1H NMR spectrum) as an approximation of M(0): (1) M=e^Ltm×M0 (2) A=(IAA/M0AIAB/M0BIAC/M0CIBA/M0AIBB/M0BIBC/M0CICA/M0AICB/M0BICC/M0C) (3) 1/tmln(A)=(kBA+kCA−R1kABkACkBA−kAB−R10kBC0−kAC−R1)
L is the difference between the kinetic matrix K containing the site-to-site rate constants and the relaxation matrix R, tm is the mixing time used in the ROESY experiment, and Ri are the auto-relaxation rates of the exchanging sites in the symmetric (A) and asymmetric (B, C) conformations.
EXSY peak volumes extracted from the ROESY spectrum (shown schematically in Fig. 13) and the magnetic fractions in the 1H NMR spectrum are inserted in matrix A (eqn 4). Site-to-site rates are obtained by taking the logarithm of matrix A and dividing the result by the mixing time (0.1 s) (eqn 5): kAB = kAC = 0.09 s^−1 and kBA = kCA = 0.16 s^−1 (averaged rates). Calculations were carried out in Mathematica 12.0.[78] (4) A=(77.9/11.52/1.51.55/1.51.59/1236/1.50/1.51.75/10/1.5200/1.5) (5) 1/0.1ln(A)=(43.55240.090.100.1450.580.000.170.0048.9)

[2] = PAMPA with and without potassium salt; format: in vitro ADME; details: for recovery at 10 μM / Papp at 10 µM / Papp: PAMPA; for PAMPA permeability (in words): independent of the addition of potassium salt
Method: PAMPA was performed using a 96-well filter donor plate with 0.45 μm hydrophobic Immobilon-P membrane supports (Millipore MAIPNTR10) and a 96-well Teflon acceptor plate (Millipore MSSACCEPTOR). The donor plate was prepared by applying 5 μL of 1% (w/v) soybean lecithin (90%, Alfa Aesar) in n-dodecane to each filter. The acceptor plate was prepared by addition of 300 μl of pH = 7.4 phosphate-buffered saline (PBS) with 5% DMSO to each well. Donor solutions composed of PBS with 5% DMSO, 10 μM carbamazepine standard, and 10 μM compound 1, 2 or 8 were prepared with and without additional KCl (0.27 mM or 100.27 mM K^+ concentration) before addition of 150 μl to each donor well, with all conditions run in quadruplicate. The donor plate was then loaded into the acceptor plate and was left in a sealed, damp chamber at 25 °C for approximately 17 hours (exact times recorded and used in calculation of Pe). The plates were then separated, and 100 μl of solution from each well was transferred to another plate for LC-MS analysis. Permeabilities were calculated identically to a previous study.[80]

[3] = Cation binding in apolar solvent (chloroform) by NMR; format: physicochemical; details: CDCl3; solid KSCN and sonication (1) or saturated KSCN solution in D2O, phase separation (2)
Method: It is known that valinomycin, a cyclic dodecadepsipeptide, as well as some crown ethers can bind cations even in an apolar solvent.[59]–[61] This ability is an indirect evidence that the ion-bound complex may exist inside the membrane interior, i.e. that ion transport across a membrane is possible. To assess if the cyclic octadepsipeptides are also able to bind cations in an apolar solvent, KSCN was added to a solution of 1 in chloroform and sonicated for several hours.

efflux transporter P-gp = test system: efflux transporter P-gp; set-up: method as in PMID 25131706; details: cited from earlier work
[4] = set-up: method as in PMID 26067057; details: PAMPA; cited from earlier work
Caco-2 = test system: Caco-2; set-up: method as in PMID 26067057, PMID 32121188; details: cited from earlier work
[5] = set-up: method as in PMID 22138252, PMID 24061379; details: cited from earlier work
[6] = set-up: method as in PMID 22138252, PMID 24061379; details: cited from earlier work; remark: listed apart in the source
mycobacteria = test system: mycobacteria; set-up: method as in PMID 5879163; details: cited from earlier work
ryanodine-binding = test system: ryanodine-binding; set-up: method as in PMID 20057513; details: cited from earlier work
[7] = pH 7.4, PAMPA, + 100 mM KCl, read-out: Average Recovery Rate
[8] = pH 7.4, PAMPA, without additional KCl, read-out: Average Recovery Rate
[9] = without additional KCl (0.27 mM K+), PBS pH 7.4 with 5% DMSO, 10 μM compound, approx. 17 hours, 25 °C, read-out: Average Permeability with standard deviation in brackets
[10] = worked example, mixing time 0.1 s

Structure (SMILES): CC(C)CC1C(=O)OC(Cc2ccccc2)C(=O)N(C)C(CC(C)C)C(=O)OC(C)C(=O)N(C)C(CC(C)C)C(=O)OC(Cc2ccccc2)C(=O)N(C)C(CC(C)C)C(=O)OC(C)C(=O)N1C (single isomer, unassigned) [enantiomer of PF1022A]
Anthelmintic activity (in words) (nematodes): no anthelmintic activity

recovery at 10 μM [2, 7]: 6.8% | recovery at 10 μM [2, 8]: 26.2% | Papp at 10 µM [2, 9]: 0.08 ×10⁻⁶ cm/s | PAMPA permeability (in words) [2]: no permeability was detected
Structure (SMILES): CC(C)C[C@H]1C(=O)O[C@H](Cc2ccccc2)C(=O)N(C)[C@@H](CC(C)C)C(=O)O[C@H](C)C(=O)N(C)N(CC(C)C)C(=O)O[C@H](Cc2ccccc2)C(=O)N(C)N(CC(C)C)C(=O)O[C@H](C)C(=O)N1C [Bis-aza analog (8)]
kex [1]: 0.19 s⁻¹ | k1 [1]: 0.17 s⁻¹ | k2 [1]: 0.02 s⁻¹ | Biological activity weaker by a factor compared to 1 (nematodes): 5–10

Papp at 10 µM ([2]; pH 7.4, 10 μM standard in donor solutions, with and without 100 mM KCl, read-out: Permeability of PAMPA control): 7.94 to 11.1 ×10⁻⁶ cm/s | recovery at 10 μM ([2]; pH 7.4, 10 μM standard in donor solutions, with and without 100 mM KCl, read-out: Recovery rate of PAMPA control): 85.4 to 200%
Structure (SMILES): NC(=O)N1c2ccccc2C=Cc2ccccc21 [Carbamazepine, carbamazepine, reference compound]

recovery at 10 μM [2, 7]: 27.3% | recovery at 10 μM [2, 8]: 78.7% | PAMPA permeability (in words) [2]: no permeability was detected
Structure (SMILES): CC(C)C[C@H]1C(=O)O[C@H](Cc2ccc(N3CCOCC3)cc2)C(=O)N(C)[C@@H](CC(C)C)C(=O)O[C@H](C)C(=O)N(C)[C@@H](CC(C)C)C(=O)O[C@H](Cc2ccc(N3CCOCC3)cc2)C(=O)N(C)[C@@H](CC(C)C)C(=O)O[C@H](C)C(=O)N1C [Emodepside (2), reference compound]
kex [1]: 0.18 s⁻¹ | k1 [1]: 0.12 s⁻¹ | k2 [1]: 0.06 s⁻¹ | Anthelmintic activity relative to PF1022A (in words) (nematodes): increased anthelmintic activity | Conformation detected in chloroform after contact with KSCN [3]: the symmetric conformation is present almost exclusively | Substrate of the efflux transporter P-gp (efflux transporter P-gp): substrate

Structure (SMILES): CC(C)[C@H]1C(=O)O[C@H](C(C)C)C(=O)N(C)[C@@H](C(C)C)C(=O)O[C@H](C(C)C)C(=O)N(C)[C@@H](C(C)C)C(=O)O[C@H](C(C)C)C(=O)N1C [Enniatin B, enniatin B]
log Pe [4]: −4.73 | Permeability in Caco-2 permeability assay (Caco-2): 610 ×10⁻⁶ cm/s

Structure (SMILES): CC(C)C[C@H]1C(=O)O[C@H](Cc2ccc(I)cc2)C(=O)N(C)[C@@H](CC(C)C)C(=O)O[C@H](C)C(=O)N(C)[C@@H](CC(C)C)C(=O)O[C@H](Cc2ccccc2)C(=O)N(C)[C@@H](CC(C)C)C(=O)O[C@H](C)C(=O)N1C [Mono-iodo analog (11)]
kex [1]: 0.26 s⁻¹ | k1 [1]: 0.17 s⁻¹ | k2 [1]: 0.09 s⁻¹

Structure (SMILES): CC(C)CC1C(=O)OC(Cc2ccccc2)C(=O)N(C)C(CC(C)C)C(=O)OC(C)C(=O)N(C)C(CC(C)C)C(=O)OC(Cc2ccccc2)C(=O)N(C)C(CC(C)C)C(=O)OC(C)C(=O)N1C (stereo not drawn) [PF1022A (1)]
kex [1]: 0.25 s⁻¹ | k1 [1]: 0.16 s⁻¹ | k2 [1]: 0.09 s⁻¹ | kAB = kAC (averaged site-to-site rate) [1, 10]: 0.09 s⁻¹ | kBA = kCA (averaged site-to-site rate) [1, 10]: 0.16 s⁻¹ | Conformation detected in chloroform after contact with KSCN [3]: only the symmetric conformation could be detected | Papp ([2]; pH 7.4, PAMPA, + 100 mM KCl (100.27 mM K+), PBS pH 7.4 with 5% DMSO, 10 μM compound, approx. 17 hours, 25 °C, read-out: Average Permeability with standard deviation in brackets): 0.02 ×10⁻⁶ cm/s | recovery at 10 μM [2, 7]: 57.4% | recovery at 10 μM [2, 8]: 18.4% | Papp [2, 9]: 0.06 ×10⁻⁶ cm/s | PAMPA permeability (in words) [2]: no permeability was detected

Structure (SMILES): CC(C)C1OC(=O)C(C(C)C)N(C)C1=O (stereo not drawn) [compound 3, 3,6-di-(propan-2-yl)-4-methyl-morpholine-2,5-dione]
Antioxidant activity (in words) [5]: moderate | Antimicrobial activity (in words) [6]: moderate

Structure (SMILES): CC(C)C[C@H]1C(=O)O[C@H](C(C)C)C(=O)N(C)[C@@H](CC(C)C)C(=O)O[C@H](C(C)C)C(=O)N1C [compound 4, cyclo-(N-methyl L-leucine D-hydroxyisovaleric acid)2]
Activity against mycobacteria (in words) (mycobacteria): no activity

Structure (SMILES): CCCCC[C@H]1OC(=O)[C@H](C)N(C)C(=O)[C@@H](CCCCC)OC(=O)[C@H](C)N(C)C(=O)[C@@H](CCCCC)OC(=O)[C@H](C)N(C)C(=O)[C@@H](CCCCC)OC(=O)[C@H](C)N(C)C1=O [compound 7, verticilide]
Ryanodine binding (in words) (ryanodine-binding): ryanodine-binding inhibitor

Structure (SMILES): CC(C)C[C@H]1C(=O)O[C@H](Cc2ccccc2)C(=O)N(C)[C@@H](CC(C)C)C(=O)O[C@H](C)C(=O)N(C)[C@@H](CC(C)C)C(=O)N2CCC[C@@H]2C(=O)N2CCC[C@H]2C(=O)O[C@H](C)C(=O)N1C [compound 9] (cyclo([dLac][NMeL][dPhLac][NMeL][dLac][NMeL][dP]P))
Biological activity higher by a factor compared to 1 (nematodes): 2

Structure (SMILES): CC(C)C[C@H]1C(=O)O[C@H](Cc2ccccc2)C(=S)N(C)[C@@H](CC(C)C)C(=O)O[C@H](C)C(=S)N(C)[C@@H](CC(C)C)C(=O)O[C@H](Cc2ccccc2)C(=S)N(C)[C@@H](CC(C)C)C(=O)O[C@H](C)C(=S)N1C [compound 10]
Activity increased (times) compared to 1 (nematodes): 2.5
